Results published in ChEMBL document CHEMBL1149610, “Bicyclo[2.2.2]octyl esters of dialkylamino acids as antiprotozoals” (Bioorg Med Chem, 2007).

Key:
[1] = tested on: Trypanosoma brucei rhodesiense; experiment: Antitrypanosomal activity against Trypanosoma brucei rhodesiense after 72 hrs by microplate assay; format: functional, organism-based
[2] = Selectivity index, ratio of IC50 for rat L6 cells to IC50 for Trypanosoma brucei rhodesiense; format: functional
[3] = tested on: Plasmodium falciparum; experiment: Antiplasmodial activity against chloroquine, pyrimethamine-resistant Plasmodium falciparum K1 after 48 hrs; format: functional, organism-based; details: K1, 48 h
[4] = Selectivity index, ratio of IC50 for rat L6 cells to IC50 for Plasmodium falciparum K1; format: functional
[5] = tested on: L6; experiment: Cytotoxicity against rat L6 cells after 72 hrs by microplate assay; format: cell-based; details: L6, 72 h

SMILES | IC50 [1] [µM] | Ratio IC50 [2] | IC50 [3] [µM] | Ratio IC50 [4] | IC50 [5] [µM]
CN(C)C12CC(OC(=O)C(C)(C)C)C(C(c3ccccc3)C1)C(c1ccccc1)C2 (racemic) | 0.62 | 8.16 | 0.42 | 12.05 | 5.06
CN(C)C12CC(OC(=O)CN3CCCC3)C(C(c3ccccc3)C1)C(c1ccccc1)C2 (racemic) | – | 155.5 | – | 46 | –
CC(=O)OC1CC2(N3CCCCC3)CC(c3ccccc3)C1C(c1ccccc1)C2 (racemic) | 9.89 | – | > 11 | – | –
CC(C)(C)C(=O)OC1CC2(N3CCCC3)CC(c3ccccc3)C1C(c1ccccc1)C2 (racemic) | 1.38 | 5.52 | 0.99 | 7.7 | 7.62
O=C(OC1CC2(N3CCCCC3)CC(c3ccccc3)C1C(c1ccccc1)C2)c1ccc2c(c1)OCO2 (racemic) | 2.51 | 5.07 | 0.55 | 23.15 | 12.7
CN(C)C12CC(OC(=O)c3ccc4c(c3)OCO4)C(C(c3ccccc3)C1)C(c1ccccc1)C2 (racemic) | 0.98 | 5.43 | 0.34 | 15.65 | 5.32
O=C(/C=C/c1ccccc1)OC1CC2(N3CCCC3)CC(c3ccccc3)C1C(c1ccccc1)C2 (racemic) | 1.04 | 3.37 | 0.63 | 5.56 | 3.5
O=C(/C=C/c1ccccc1)OC1CC2(N3CCCCC3)CC(c3ccccc3)C1C(c1ccccc1)C2 (racemic) | 1.41 | 7.43 | 0.45 | 23.27 | 10.5
O=C(CN1CCCC1)OC1CC2(N3CCCC3)CC(c3ccccc3)C1C(c1ccccc1)C2 (racemic) | 0.23 | 186.7 | 0.7 | 61.34 | 42.9
O=C(CN1CCCCC1)OC1CC2(N3CCCCC3)CC(c3ccccc3)C1C(c1ccccc1)C2 (racemic) | – | 69.41 | – | 335.5 | –
C[C@@H]1CC[C@H]2[C@@H](C)C(=O)O[C@@H]3O[C@@]4(C)CC[C@@H]1[C@]32OO4 [ARTEMISININ] | – | – | 0.0064 | – | –
CC(=O)OC1CC2(N3CCCC3)CC(c3ccccc3)C1C(c1ccccc1)C2 (racemic) | 4.93 | – | > 11.7 | – | –
CC(C)(C)C(=O)OC1CC2(N3CCCCC3)CC(c3ccccc3)C1C(c1ccccc1)C2 (racemic) | 2.69 | 4.46 | 7.93 | 1.51 | 12
CCN(CC)CC(=O)OC1CC2(N3CCCCC3)CC(c3ccccc3)C1C(c1ccccc1)C2 (racemic) | – | 42.71 | – | 95.68 | –
CCN(CC)CC(=O)OC1CC2(N(C)C)CC(c3ccccc3)C1C(c1ccccc1)C2 (racemic) | – | 49.41 | – | 11.08 | –
O=C(CN1CCCC1)OC1CC2(N3CCCCC3)CC(c3ccccc3)C1C(c1ccccc1)C2 (racemic) | – | 51.19 | – | 34.85 | –
O=C(CN1CCCCC1)OC1CC2(N3CCCC3)CC(c3ccccc3)C1C(c1ccccc1)C2 (racemic) | – | 38.43 | – | 38.43 | –
CCN(CC)CC(=O)OC1CC2(N3CCCC3)CC(c3ccccc3)C1C(c1ccccc1)C2 (racemic) | – | 68.06 | – | 245 | –
CN(C)C12CC(OC(=O)CN3CCCCC3)C(C(c3ccccc3)C1)C(c1ccccc1)C2 (racemic) | – | 14.7 | – | 56.27 | –
CC(=O)OC1CC2(N(C)C)CC(c3ccccc3)C1C(c1ccccc1)C2 (racemic) | 4.75 | – | > 12.5 | – | –
CN(C)C12CC(O)C(C(c3ccccc3)C1)C(c1ccccc1)C2 (racemic) | – | 44.92 | – | <8.53 | –
CN(C)C12CC(OC(=O)/C=C/c3ccccc3)C(C(c3ccccc3)C1)C(c1ccccc1)C2 (racemic) | 0.83 | 4.6 | 0.69 | 5.54 | 3.82
O=C(OC1CC2(N3CCCC3)CC(c3ccccc3)C1C(c1ccccc1)C2)c1ccc2c(c1)OCO2 (racemic) | 0.82 | 6.89 | 0.39 | 14.49 | 5.65
